This is an account of results in patent US9580463B2 (BRISTOL-MYERS SQUIBB COMPANY, priority 2013, dated 2017).

The subject of the assay is HCV genotype 1b (Con1) replicon in HUH-7 cells. Briefly: HCV replicon luciferase reporter assay, genotype 1b. Format: cell-based. Particulars: Hepatitis C virus, 72 h, genotype 1b replicon, 3 days incubation, read-out: LE_1b (EC50, range). From the text:
An HCV replicon whole cell system was established as described by Lohmann V, Korner F, Koch J, Herian U, Theilmann L, Bartenschlager R., Science 285(5424):110-3 (1999) and modified to introduce a luciferase reporter, as first described by Krieger et al (Krieger N, Lohmann V, and Bartenschlager R, J. Virol. 75(10):4614-4624 (2001)). CDNA encoding a humanized form of the Renilla luciferase gene and a linker sequence fused directly to the 3′-end of the luciferase gene were introduced into the replicon construct using an Asc1 restriction site located in core, directly upstream of the neomycin marker gene. The adaptive mutation at position 1179 (serine to isoleucine) was also introduced (Blight K J, Kolykhalov, A A, Rice, C M, Science 290(5498):1972-1974). A stable cell line constitutively expressing this HCV replicon construct was generated by first linearizing plasmid DNAs with ScaI. RNA transcripts were synthesized in vitro using the T7 MegaScript transcription kit (Ambion, Austin, Tex.) according to manufacturer's directions. In vitro transcripts of the cDNA were transfected into the human hepatoma cell line, HUH-7. […] Resulting cell lines were characterized for positive and negative strand RNA production and protein production over time. […]
HCV replicon luciferase assays were developed to monitor the inhibitory effects of compounds described in the disclosure on HCV genotypes 1a and 1b viral replication. HUH-7 cells, constitutively expressing the HCV replicon, were grown in Dulbecco's Modified Eagle Media (DMEM) (Gibco-BRL) containing 10% Fetal calf serum (FCS) (Sigma) and 1 mg/mL G418 (Gibco-BRL). Compounds were serially diluted 3 folds in DMSO for a twenty-point titration and subsequently transferred to sterile 384-well tissue-culture treated plates (Corning cat #3571). The plates were then seeded with 50 μL of cells at a density of 3.0×10^3 cells/well in DMEM containing 4% FCS (final DMSO concentration at 0.5%). After 3 days incubation at 37° C., cells were analyzed for Renilla Luciferase activity using the EnduRen as substrate (Promega cat #E6485). The EnduRen substrate was diluted in DMEM and then added to the plates to a final concentration of 7.5 μM. The plates were incubated for 2 hrs at 37° C. and then read immediately for 30 seconds with Viewlux Imager (PerkinElmer) using a luminescence program. To assess cytotoxicity of compounds, CC50 values were generated by multiplexing the EnduRen-containing plates with Cell Titer-Blue (Promega, cat # G8082). Cell-Titer Blue (3 μL) was added to each well and incubated for 8 hrs at 37° C. The fluorescence signal from each well was read, with an excitation wavelength at 525/10 nm and an emission wavelength of 598/10 nm, using the Viewlux Imager.
The EC50 values for compounds were calculated by using a four-parameter logistic equation: y=A+((B−A)/(1+((C/x)^D))), where A and B denotes minimal and maximal % inhibition, respectively, C is the EC50, D is the hill slope and x represents compound concentration.
For orientation: A replicon is a self-replicating genome or part of one, used to study replication in cells.
For the molecule `COC[C@@H]1C[C@@H](C)CC/C=C\[C@@H]2C[C@@]2(C(=O)NS(=O)(=O)C2(C)CC2)NC(=O)[C@@H]2C[C@@H](Oc3nc4cc(OC(C)C)ccc4nc3C(F)(F)F)CN2C(=O)[C@H]1NC(=O)OC(C)(C)C(C)(F)F` [Compound 1055, 3,3-difluoro-2-methylbutan-2-yl ((2R,6S,7R,9S,13aS,14aR,16aS,Z)-2-((7-isopropoxy-3-(trifluoromethyl)quinoxalin-2-yl)oxy)-7-(methoxymethyl)-9-methyl-14a-(((1-methylcyclopropyl)sulfonyl)carbamoyl)-5,16-dioxo-1,2,3,5,6,7,8,9,10,11,13a,14,14a,15,16,16a-hexadecahydrocyclopropa[e]pyrrolo[1,2-a][1,4]diazacyclopentadecin-6-yl)carbamate], the EC50 lay in the range of 1.01 to 5 nM. To `COC[C@@H]1C[C@H](C)CC/C=C\[C@@H]2C[C@@]2(C(=O)NS(=O)(=O)C2(C)CC2)NC(=O)[C@@H]2C[C@@H](Oc3nc4cc(OC(C)C)ccc4nc3C(F)(F)F)CN2C(=O)[C@H]1NC(=O)OC(C)(C)C(C)(F)F` [Compound 1056, 3,3-difluoro-2-methylbutan-2-yl ((2R,6S,7R,9R,13aS,14aR,16aS,Z)-2-((7-isopropoxy-3-(trifluoromethyl)quinoxalin-2-yl)oxy)-7-(methoxymethyl)-9-methyl-14a-(((1-methylcyclopropyl)sulfonyl)carbamoyl)-5,16-dioxo-1,2,3,5,6,7,8,9,10,11,13a,14,14a,15,16,16a-hexadecahydrocyclopropa[e]pyrrolo[1,2-a][1,4]diazacyclopentadecin-6-yl)carbamate] belongs 0.1 to 0.5 nM; to `COC[C@@H]1C[C@@H](C)CC/C=C\[C@@H]2C[C@@]2(C(=O)NS(=O)(=O)C2(C)CC2)NC(=O)[C@@H]2C[C@@H](Oc3nc4cc(OC(C)C)ccc4nc3C(F)(F)F)CN2C(=O)[C@H]1NC(=O)OC(C)(C)C(F)(F)F` [Compound 1057, 1,1,1-trifluoro-2-methylpropan-2-yl ((2R,6S,7R,9S,13aS,14aR,16aS,Z)-2-((7-isopropoxy-3-(trifluoromethyl)quinoxalin-2-yl)oxy)-7-(methoxymethyl)-9-methyl-14a-(((1-methylcyclopropyl)sulfonyl)carbamoyl)-5,16-dioxo-1,2,3,5,6,7,8,9,10,11,13a,14,14a,15,16,16a-hexadecahydrocyclopropa[e]pyrrolo[1,2-a][1,4]diazacyclopentadecin-6-yl)carbamate], 5.01 to 35 nM; to `COC[C@@H]1C[C@H](C)CC/C=C\[C@@H]2C[C@@]2(C(=O)NS(=O)(=O)C2(C)CC2)NC(=O)[C@@H]2C[C@@H](Oc3nc4cc(OC(C)C)ccc4nc3C(F)(F)F)CN2C(=O)[C@H]1NC(=O)OC(C)(C)C(F)(F)F` [Compound 1058, 1,1,1-trifluoro-2-methylpropan-2-yl ((2R,6S,7R,9R,13aS,14aR,16aS,Z)-2-((7-isopropoxy-3-(trifluoromethyl)quinoxalin-2-yl)oxy)-7-(methoxymethyl)-9-methyl-14a-(((1-methylcyclopropyl)sulfonyl)carbamoyl)-5,16-dioxo-1,2,3,5,6,7,8,9,10,11,13a,14,14a,15,16,16a-hexadecahydrocyclopropa[e]pyrrolo[1,2-a][1,4]diazacyclopentadecin-6-yl)carbamate], 0.1 to 0.5 nM. Regarding `COC[C@@H]1C[C@@H](C)CC/C=C\[C@@H]2C[C@@]2(C(=O)NS(=O)(=O)C2(C)CC2)NC(=O)[C@@H]2C[C@@H](Oc3nc(OC)c4c(OC)cccc4n3)CN2C(=O)[C@H]1NC(=O)OC(C)(C)C(F)(F)F` [Compound 1059, 1,1,1-trifluoro-2-methylpropan-2-yl ((2R,6S,7R,9S,13aS,14aR,16aS,Z)-2-((4,5-dimethoxyquinazolin-2-yl)oxy)-7-(methoxymethyl)-9-methyl-14a-(((1-methylcyclopropyl)sulfonyl)carbamoyl)-5,16-dioxo-1,2,3,5,6,7,8,9,10,11,13a,14,14a,15,16,16a-hexadecahydrocyclopropa[e]pyrrolo[1,2-a][1,4]diazacyclopentadecin-6-yl)carbamate], the EC50 was in the range of 35 to 620 nM. In the case of `COC[C@@H]1C[C@H](C)CC/C=C\[C@@H]2C[C@@]2(C(=O)NS(=O)(=O)C2(C)CC2)NC(=O)[C@@H]2C[C@@H](Oc3nc(OC)c4c(OC)cccc4n3)CN2C(=O)[C@H]1NC(=O)OC(C)(C)C(F)(F)F` [Compound 1060, 1,1,1-trifluoro-2-methylpropan-2-yl ((2R,6S,7R,9R,13aS,14aR,16aS,Z)-2-((4,5-dimethoxyquinazolin-2-yl)oxy)-7-(methoxymethyl)-9-methyl-14a-(((1-methylcyclopropyl)sulfonyl)carbamoyl)-5,16-dioxo-1,2,3,5,6,7,8,9,10,11,13a,14,14a,15,16,16a-hexadecahydrocyclopropa[e]pyrrolo[1,2-a][1,4]diazacyclopentadecin-6-yl)carbamate], the EC50 fell in the range of 1.01 to 5 nM. Under `COC[C@@H]1C[C@H](C)CC/C=C\[C@@H]2C[C@@]2(C(=O)NS(=O)(=O)C2(C)CC2)NC(=O)[C@@H]2C[C@@H](Oc3nc(OC)c4c(OC)cccc4n3)CN2C(=O)[C@H]1NC(=O)OC(C)(C)C` [Compound 1061, tert-butyl ((2R,6S,7R,9R,13aS,14aR,16aS,Z)-2-((4,5-dimethoxyquinazolin-2-yl)oxy)-7-(methoxymethyl)-9-methyl-14a-(((1-methylcyclopropyl)sulfonyl)carbamoyl)-5,16-dioxo-1,2,3,5,6,7,8,9,10,11,13a,14,14a,15,16,16a-hexadecahydrocyclopropa[e]pyrrolo[1,2-a][1,4]diazacyclopentadecin-6-yl)carbamate] stands 5.01 to 35 nM; under `COC[C@@H]1C[C@H](C)CC/C=C\[C@@H]2C[C@@]2(C(=O)NS(=O)(=O)C2(C)CC2)NC(=O)[C@@H]2C[C@@H](Oc3nc(OC)c4c(OC)cccc4n3)CN2C(=O)[C@H]1NC(=O)OC(C)(C)C(C)(F)F` [Compound 1062, 3,3-difluoro-2-methylbutan-2-yl ((2R,6S,7R,9R,13aS,14aR,16aS,Z)-2-((4,5-dimethoxyquinazolin-2-yl)oxy)-7-(methoxymethyl)-9-methyl-14a-(((1-methylcyclopropyl)sulfonyl)carbamoyl)-5,16-dioxo-1,2,3,5,6,7,8,9,10,11,13a,14,14a,15,16,16a-hexadecahydrocyclopropa[e]pyrrolo[1,2-a][1,4]diazacyclopentadecin-6-yl)carbamate], 1.01 to 5 nM.

As to `CCOc1cnc(O[C@@H]2C[C@H]3C(=O)N[C@]4(C(=O)NS(=O)(=O)C5(C)CC5)C[C@H]4/C=C\CC[C@H](C)C[C@@H](COC)[C@H](NC(=O)OC(C)(C)C)C(=O)N3C2)c2ccc(OC)cc12` [Compound 1063, tert-butyl ((2R,6S,7R,9S,13aS,14aR,16aS,Z)-2-((4-ethoxy-6-methoxyisoquinolin-1-yl)oxy)-7-(methoxymethyl)-9-methyl-14a-(((1-methylcyclopropyl)sulfonyl)carbamoyl)-5,16-dioxo-1,2,3,5,6,7,8,9,10,11,13a,14,14a,15,16,16a-hexadecahydrocyclopropa[e]pyrrolo[1,2-a][1,4]diazacyclopentadecin-6-yl)carbamate], the EC50 is 0.1 to 0.5 nM. With `CCOc1cnc(O[C@@H]2C[C@H]3C(=O)N[C@]4(C(=O)NS(=O)(=O)C5(C)CC5)C[C@H]4/C=C\CC[C@@H](C)C[C@@H](COC)[C@H](NC(=O)OC(C)(C)C)C(=O)N3C2)c2ccc(OC)cc12` [Compound 1064, tert-butyl ((2R,6S,7R,9R,13aS,14aR,16aS,Z)-2-((4-ethoxy-6-methoxyisoquinolin-1-yl)oxy)-7-(methoxymethyl)-9-methyl-14a-(((1-methylcyclopropyl)sulfonyl)carbamoyl)-5,16-dioxo-1,2,3,5,6,7,8,9,10,11,13a,14,14a,15,16,16a-hexadecahydrocyclopropa[e]pyrrolo[1,2-a][1,4]diazacyclopentadecin-6-yl)carbamate], the 50% effective concentration (EC50) was 0.1 to 0.5 nM.

The term EC50 denotes the concentration needed to bring the measured effect to its halfway point.
